Like-named read-outs stand apart in the source and are kept apart here.
Tests used:
PI3Kδ = molecular target: T1, PI3Kδ (Homo sapiens, UniProt O00329); assay: In vitro test of enzyme activity (ADP-Glo lipokinase), PI3K delta; assay type: biochemical; conditions: 40 μM ATP, 50 μM PIP2:3PS, 120 min
T1 construct: purchased Millipore 14-604-K
Method: (§1) 1. In Vitro Test of Enzyme Activity
(§2) The lipokinase reaction was carried out under the conditions of a suitable substrate and ATP, followed by two steps to detect the kinase activity with the ADP-Glo™ kit. The first step was terminating the kinase reaction, wherein the remaining ATP was completely removed and only ADP was left; the second step was adding kinase detection reagents to convert ADP to ATP, accompanied by luciferin/luciferase reaction. Finally, the output value of fluorescence value was converted into kinase activity.
(§3) Experimental materials and equipments:
(§4) 2. Kit: ADP-Glo™ Lipokinase and PIP2:3PS Kit (Promega # V1792)
(§5) The kit contains: 1 mM PIP2:3PS, 10× lipid dilution buffer, 1 M magnesium chloride, 10 mM ATP, 10 mM ADP, ADP-Glo reagent, detection buffer and detection substrate.
(§6) 3. Reaction plate: OptiPlate-384, white and transparent (PerkinElmer #6007299).
(§7) 1. 10× reaction buffer: 500 mM HEPES, pH 7.5, 500 mM NaCl, 9 mM MgCl2; BSA: 10% stock solution, homemade.
(§8) 2. Final test system conditions: 1× reaction system: 50 mM HEPES, 50 mM NaCl, 3 mM MgCl2, 0.01% BSA (freshly prepared on the day of the experiment), 1% DMSO (v/v)+/−compound
(§9) 3. Reaction system: 3 μL mixture of the enzyme and the substrate (1:1)+2 μL ATP/MgCl2 mixture+5 μL ADP-Glo reagent+10 μL detection reagent.
(§10) The detailed experimental procedures are as follows:
(§11) 1. Compound dilution: 50 nL 100×compound/DMSO was transferred to the test well plate with Echo. • For PI3Kα, the compound was diluted three-fold from the highest concentration of 0.111 mM for a total of 10 concentrations. • For PI3Kβ/PI3Kδ/PI3Kγ, the compound was three-fold diluted from the highest concentration of 1.11 mM for a total of 10 concentrations.
(§12) (1) The compound to be tested was prepared and 50 nL of 100 plus compound solution or DMSO was added to the corresponding well plate.
(§13) (2) 3.33 plate reaction buffer was prepared.
(§14) (3) 3.33 solution PIP2:3PS was prepared, PIP2:3PS was thawed for at least 1 minute before use.
(§15) (4) 2.5 mM containing 5.25 mM MgCl2 was prepared.
(§16) (5) 3.33 PI3Kα/PI3Kβ/PI3Kδ/PI3Kγ solution was prepared.
(§17) (6) The lipokinase solution and the PIP2:3PS solution were mixed in a volume ratio of 1:1.
(§18) (7) 3.33: lipokinase buffer and PIP2:3PS solution were mixed in a volume ratio of 1:1.
(§19) (8) 3 μL of buffer solution and PIP2:3PS were added to the first and the second columns of the well plate.
(§20) (9) 3 μL of the mixed solution of the enzyme and PIP2:3PS was added to the wells except the first and the second columns, centrifuged for 10 seconds (1000 rpm) and incubated at 23° C. for 20 minutes.
(§21) (10) 2 μL […] was added and well was shaken.
(§22) (11) The well plate was covered and shaken for about 30 s, then the well plate was incubated at 23° C. for 2 hours.
(§23) (12) 5 μL of ADP-Glo reagent containing 10 mM MgCl2 was added.
(§24) (13) The well plate was centrifuged at 1000 rpm for 10 seconds, and the well plate was then covered, shaken for about 30 seconds, and incubated at 23° C. for 60 minutes.
(§25) (14) 10 μL kinase detection reagent was added.
(§26) (15) The well plate was centrifuged at 1000 rpm for 10 seconds, and then incubated at 23° C. for 60 minutes.
(§27) (16) The fluorescence value was measured on the Envision instrument.

[1] = test system: phosphorylation of PI3K downstream protein Akt in MCF7 cells; assay: In vitro test of cells activity: ELISA of Akt phosphorylation in MCF7 cells; assay type: cell-based; conditions: 2 h compound, insulin 10 μg/mL stimulation, pAkt ELISA, read-out: MCF7 Cell IC50
Method: 2. In vitro test of cells activity
By the method of ELISA, the inhibition level of the test compound on the phosphorylation of PI3K downstream protein Akt in the signaling pathway was determined in MCF7 cells line to reflect the cells activity of the compound.
Cell culture medium: complete cell culture medium (RPMI 1640+10% serum+1% L-glutamine+1% double antibody)
Serum-free medium (without serum, RPMI 1640+1% L-glutamine+1% double antibody)
The detailed procedures areas follows:
(1) MCF7 cells (ATCC® HTB-22™) were inoculated into a 96-well plate at 100 μL of cell complete medium per well (2.5*10^4 cells per well), and the cells were incubated at 37° C. and 5% CO2 for 24 hours.
(2) The complete cell culture medium was replaced with 100 μL of serum-free medium, and incubated for starvation overnight.
(3) The compound was prepared (The initial concentration of the compound is 1 mM, which was subjected to a three-fold dilution in 10 concentrations, and the compound of each concentration was then diluted 100-fold with serum-free medium). 25 μL of the diluted compound was added to the cells orifice plate.
(4) The cells were incubated at 37° C. and 5% CO2 for 2 hours.
(5) The cells in the well plate were stimulated with 10 μg/mL insulin (Sigma # I9278-5 mL), incubated for 30 minutes, and then centrifuged at 1000 rpm for 5 minutes at room temperature.
(6) 250 μL of 1× balanced salt solution (Invitrogen, #14065-056, 4° C., containing 1 mM/L Na3VO4) was added to each well to wash the cells once.
(7) 100 μL of lysis buffer (trimethylolaminomethane hydrochloride, Invitrogen, #15567-1000 ml) was added to each well, shaken at 4° C. for 60 minutes, and then centrifuged at 4000 rpm for 4 minutes.
(8) The following procedures were carried out according to the instructions of ELISA kit (TGR BioSciences # EKT002).

PI3Kα = molecular target: T2, PI3Kα (Homo sapiens, UniProt P42336); assay: In vitro test of enzyme activity (ADP-Glo lipokinase), PI3K alpha; assay type: biochemical; conditions: 40 μM ATP, 50 μM PIP2:3PS, 120 min
T2 construct: purchased Millipore 14-602-K
T2 sequence (P42336 whole entry): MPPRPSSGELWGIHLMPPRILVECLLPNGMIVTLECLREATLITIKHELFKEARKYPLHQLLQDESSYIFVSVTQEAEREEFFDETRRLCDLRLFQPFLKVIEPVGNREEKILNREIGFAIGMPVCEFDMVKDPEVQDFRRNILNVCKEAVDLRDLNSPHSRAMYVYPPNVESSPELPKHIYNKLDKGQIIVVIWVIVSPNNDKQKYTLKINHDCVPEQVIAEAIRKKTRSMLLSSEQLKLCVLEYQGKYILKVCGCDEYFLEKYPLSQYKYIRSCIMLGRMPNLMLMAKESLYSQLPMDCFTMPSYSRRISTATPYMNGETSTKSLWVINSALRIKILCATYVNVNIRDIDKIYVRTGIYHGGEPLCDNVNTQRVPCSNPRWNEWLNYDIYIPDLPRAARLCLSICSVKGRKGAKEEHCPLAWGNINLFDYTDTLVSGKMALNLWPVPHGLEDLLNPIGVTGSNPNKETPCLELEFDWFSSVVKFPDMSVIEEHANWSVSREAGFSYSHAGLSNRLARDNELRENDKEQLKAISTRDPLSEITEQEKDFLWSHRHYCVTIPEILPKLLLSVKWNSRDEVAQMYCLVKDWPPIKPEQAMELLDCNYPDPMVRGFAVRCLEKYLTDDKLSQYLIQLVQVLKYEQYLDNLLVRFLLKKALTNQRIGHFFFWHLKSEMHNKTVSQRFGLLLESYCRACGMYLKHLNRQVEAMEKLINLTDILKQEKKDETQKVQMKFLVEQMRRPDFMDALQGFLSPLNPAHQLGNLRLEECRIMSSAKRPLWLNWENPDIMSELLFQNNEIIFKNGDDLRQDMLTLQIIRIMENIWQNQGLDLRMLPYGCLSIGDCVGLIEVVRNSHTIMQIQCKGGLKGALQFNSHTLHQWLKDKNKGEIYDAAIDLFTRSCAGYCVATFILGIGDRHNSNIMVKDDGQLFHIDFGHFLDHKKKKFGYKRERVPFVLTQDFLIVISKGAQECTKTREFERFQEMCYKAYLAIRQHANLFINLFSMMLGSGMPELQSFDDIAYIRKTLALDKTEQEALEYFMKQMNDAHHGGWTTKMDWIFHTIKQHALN
T2 sequence (P27986 whole entry partner): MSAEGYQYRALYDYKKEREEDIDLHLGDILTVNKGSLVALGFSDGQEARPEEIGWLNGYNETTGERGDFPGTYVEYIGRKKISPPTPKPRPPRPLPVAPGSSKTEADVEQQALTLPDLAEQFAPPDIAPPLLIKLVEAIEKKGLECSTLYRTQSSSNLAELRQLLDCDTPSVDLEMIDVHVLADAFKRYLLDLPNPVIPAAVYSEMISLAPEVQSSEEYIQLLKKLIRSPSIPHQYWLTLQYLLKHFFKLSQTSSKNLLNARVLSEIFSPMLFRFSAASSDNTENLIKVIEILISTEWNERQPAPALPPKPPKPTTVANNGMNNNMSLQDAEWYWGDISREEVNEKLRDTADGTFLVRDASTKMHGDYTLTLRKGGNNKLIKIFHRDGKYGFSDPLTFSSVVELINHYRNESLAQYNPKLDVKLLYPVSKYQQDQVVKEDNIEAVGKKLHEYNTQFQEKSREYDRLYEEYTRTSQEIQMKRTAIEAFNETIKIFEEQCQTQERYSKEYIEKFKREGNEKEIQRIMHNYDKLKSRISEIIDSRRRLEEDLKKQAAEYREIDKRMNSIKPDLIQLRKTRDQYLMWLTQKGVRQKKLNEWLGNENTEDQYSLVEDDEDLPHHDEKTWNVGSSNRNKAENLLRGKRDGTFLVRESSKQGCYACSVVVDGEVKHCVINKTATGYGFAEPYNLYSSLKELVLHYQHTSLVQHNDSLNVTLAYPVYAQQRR
Method: as §1, §2, §3, §4, §5, §6, §7, §8, §9, §10, §11, §12, §13, §14, §15, §16, §17, §18, §19, §20, §21, §22, §23, §24, §25, §26, §27

PI3Kβ = molecular target: T3, PI3Kβ (Homo sapiens, UniProt P42338); assay: In vitro test of enzyme activity (ADP-Glo lipokinase), PI3K beta; assay type: biochemical; conditions: 40 μM ATP, 50 μM PIP2:3PS, 120 min
T3 construct: purchased Promega V1751
T3 sequence (P42338 whole entry): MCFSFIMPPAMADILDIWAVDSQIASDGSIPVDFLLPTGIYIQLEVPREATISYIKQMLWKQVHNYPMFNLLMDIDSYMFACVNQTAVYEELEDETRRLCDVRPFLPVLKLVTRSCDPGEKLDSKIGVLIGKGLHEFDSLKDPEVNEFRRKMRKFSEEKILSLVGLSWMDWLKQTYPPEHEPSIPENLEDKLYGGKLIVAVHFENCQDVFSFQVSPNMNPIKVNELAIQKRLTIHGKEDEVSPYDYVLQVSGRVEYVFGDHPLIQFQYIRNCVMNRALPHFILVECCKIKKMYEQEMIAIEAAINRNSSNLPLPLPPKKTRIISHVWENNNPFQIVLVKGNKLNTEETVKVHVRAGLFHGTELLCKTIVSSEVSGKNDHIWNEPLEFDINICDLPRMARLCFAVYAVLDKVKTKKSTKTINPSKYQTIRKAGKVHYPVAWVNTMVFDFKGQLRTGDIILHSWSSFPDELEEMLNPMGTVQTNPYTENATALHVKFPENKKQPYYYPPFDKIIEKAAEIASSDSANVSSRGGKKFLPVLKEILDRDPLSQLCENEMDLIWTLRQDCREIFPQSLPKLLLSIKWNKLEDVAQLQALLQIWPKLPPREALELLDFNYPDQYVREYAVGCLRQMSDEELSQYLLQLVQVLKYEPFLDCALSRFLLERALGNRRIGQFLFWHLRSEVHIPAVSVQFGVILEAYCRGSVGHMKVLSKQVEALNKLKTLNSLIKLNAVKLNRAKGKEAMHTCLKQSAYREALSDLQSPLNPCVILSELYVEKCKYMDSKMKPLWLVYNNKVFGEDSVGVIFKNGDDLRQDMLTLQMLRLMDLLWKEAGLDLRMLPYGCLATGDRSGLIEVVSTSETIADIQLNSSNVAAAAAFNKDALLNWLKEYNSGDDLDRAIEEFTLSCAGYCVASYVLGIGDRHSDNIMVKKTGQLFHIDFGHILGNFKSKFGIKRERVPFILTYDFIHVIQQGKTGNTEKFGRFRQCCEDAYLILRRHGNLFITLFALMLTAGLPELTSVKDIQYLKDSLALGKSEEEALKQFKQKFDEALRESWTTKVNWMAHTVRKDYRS
T3 sequence (P27986 whole entry partner): as the sequence (P27986 whole entry partner) above
Method: as §1, §2, §3, §4, §5, §6, §7, §8, §9, §10, §11, §12, §13, §14, §15, §16, §17, §18, §19, §20, §21, §22, §23, §24, §25, §26, §27

PI3Kγ = molecular target: T4, PI3Kγ (Homo sapiens, UniProt P48736); assay: In vitro test of enzyme activity (ADP-Glo lipokinase), PI3K gamma; assay type: biochemical; conditions: 25 μM ATP, 50 μM PIP2:3PS, 120 min
T4 construct: purchased Millipore 14-558-K
T4 sequence (P48736 whole entry): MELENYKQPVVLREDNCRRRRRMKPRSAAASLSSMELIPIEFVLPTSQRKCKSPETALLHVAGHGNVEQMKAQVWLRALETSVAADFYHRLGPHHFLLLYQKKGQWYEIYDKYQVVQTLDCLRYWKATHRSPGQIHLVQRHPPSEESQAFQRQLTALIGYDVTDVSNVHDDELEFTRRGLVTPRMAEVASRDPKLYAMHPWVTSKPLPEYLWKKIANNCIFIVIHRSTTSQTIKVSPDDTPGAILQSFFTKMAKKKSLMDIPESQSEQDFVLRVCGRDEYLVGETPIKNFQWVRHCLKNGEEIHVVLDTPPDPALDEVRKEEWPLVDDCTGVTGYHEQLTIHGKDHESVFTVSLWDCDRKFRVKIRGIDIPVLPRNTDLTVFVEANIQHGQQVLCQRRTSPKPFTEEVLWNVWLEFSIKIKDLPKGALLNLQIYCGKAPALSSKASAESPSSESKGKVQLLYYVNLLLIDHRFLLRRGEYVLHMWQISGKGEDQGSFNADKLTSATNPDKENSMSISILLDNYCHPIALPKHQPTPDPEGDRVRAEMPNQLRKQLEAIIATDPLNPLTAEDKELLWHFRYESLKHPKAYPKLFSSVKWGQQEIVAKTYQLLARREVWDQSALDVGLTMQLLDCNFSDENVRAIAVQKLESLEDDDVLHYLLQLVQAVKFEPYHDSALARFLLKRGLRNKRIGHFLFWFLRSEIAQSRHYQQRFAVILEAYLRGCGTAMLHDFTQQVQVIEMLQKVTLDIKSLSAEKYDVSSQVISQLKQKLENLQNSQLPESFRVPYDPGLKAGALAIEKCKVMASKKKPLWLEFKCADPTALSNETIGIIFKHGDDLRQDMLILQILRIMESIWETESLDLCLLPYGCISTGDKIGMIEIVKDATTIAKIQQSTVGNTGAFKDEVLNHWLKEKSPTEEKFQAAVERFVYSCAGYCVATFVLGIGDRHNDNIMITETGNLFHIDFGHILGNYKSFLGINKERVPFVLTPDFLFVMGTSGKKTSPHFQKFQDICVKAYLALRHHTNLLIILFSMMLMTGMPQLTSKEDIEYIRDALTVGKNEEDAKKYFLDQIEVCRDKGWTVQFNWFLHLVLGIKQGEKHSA
Method: as §1, §2, §3, §4, §5, §6, §7, §8, §9, §10, §11, §12, §13, §14, §15, §16, §17, §18, §19, §20, §21, §22, §23, §24, §25, §26, §27

[2] = In vivo DMPK study in mice after a single administration; design: species or system female Balb/c mice; conditions: oral, 10 mpk
Method: Experimental objective: female Balb/c mice were used as the test animals, and the blood concentration of the compound was determined and the pharmacokinetic behavior was evaluated after a single administration.
Experimental operation: 12 healthy adult female Balb/c mice were selected, 6 for intravenous injection group and 6 for oral administration group. The compound to be tested was mixed with an appropriate amount of intravenous injection group vehicle (10% HP-betaCD: 10% solutol=1:1, pH=8), vortex-mixed and sonicated to prepare a 1.0 mg/mL clear solution, followed by filtration for subsequent use; the vehicle in the oral group was 0.5% MC/0.2% Tw80. After the test compound and the vehicle were mixed, it was vortex-mixed and sonicated to prepare a 1.0 mg/mL homogeneous suspension for subsequent use. After an intravenous administration at a dose of 1 mg/kg or an oral administration at the dose of 2 mg/kg and 10 mg/kg, whole blood of the mice was collected for a certain period of time to prepare plasma. The drug concentration was analyzed by LC-MS/MS method, and Phoenix WinNonlin software was used (Pharsight, USA) to calculate the pharmacokinetic parameters.
Cmax: the highest concentration of the drug in the body; F %: oral bioavailability; Oral DNAUC: area under the dose normalization curve; Vd: apparent volume of distribution; Cl: clearance rate; T1/2: half-life.

T1 sequence (O00329 whole entry): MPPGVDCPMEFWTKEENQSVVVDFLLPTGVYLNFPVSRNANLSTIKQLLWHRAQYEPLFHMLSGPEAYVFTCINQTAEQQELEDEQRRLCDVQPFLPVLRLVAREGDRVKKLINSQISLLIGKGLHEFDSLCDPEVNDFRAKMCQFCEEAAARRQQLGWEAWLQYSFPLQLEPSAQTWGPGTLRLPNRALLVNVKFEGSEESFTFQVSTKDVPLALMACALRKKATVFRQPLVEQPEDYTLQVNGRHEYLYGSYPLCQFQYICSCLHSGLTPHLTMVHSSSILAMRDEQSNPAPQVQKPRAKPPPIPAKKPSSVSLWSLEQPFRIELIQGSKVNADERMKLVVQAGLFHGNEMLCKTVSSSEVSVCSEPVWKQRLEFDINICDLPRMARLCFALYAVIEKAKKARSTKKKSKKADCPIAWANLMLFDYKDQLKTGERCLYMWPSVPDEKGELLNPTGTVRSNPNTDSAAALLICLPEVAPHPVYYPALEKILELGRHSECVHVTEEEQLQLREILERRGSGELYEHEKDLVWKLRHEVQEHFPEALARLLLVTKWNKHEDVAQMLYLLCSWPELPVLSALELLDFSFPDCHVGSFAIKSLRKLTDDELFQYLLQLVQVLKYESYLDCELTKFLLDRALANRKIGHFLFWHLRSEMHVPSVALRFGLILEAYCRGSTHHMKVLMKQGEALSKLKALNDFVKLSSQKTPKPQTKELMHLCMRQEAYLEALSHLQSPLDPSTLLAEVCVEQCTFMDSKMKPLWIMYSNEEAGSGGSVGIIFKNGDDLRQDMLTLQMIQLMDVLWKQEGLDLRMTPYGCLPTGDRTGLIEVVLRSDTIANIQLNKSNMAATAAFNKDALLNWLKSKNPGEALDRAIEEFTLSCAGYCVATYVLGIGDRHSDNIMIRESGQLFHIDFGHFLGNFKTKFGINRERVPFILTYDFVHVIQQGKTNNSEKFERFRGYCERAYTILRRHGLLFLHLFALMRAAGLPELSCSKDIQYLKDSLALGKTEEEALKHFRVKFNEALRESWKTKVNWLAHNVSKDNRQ
T1 sequence (P27986 whole entry partner): as the sequence (P27986 whole entry partner) above

Structure (SMILES) | IC50 (PI3Kδ) | IC50 [1] | IC50 (PI3Kα) | IC50 (PI3Kβ) | IC50 (PI3Kγ) | Cmax [2] | Oral DNAUC (area under the dose normalization curve) [2] | IC50 ([1]; Homo sapiens, MCF7, 2 h)
CNC(=O)C(C)Cn1cnc2ccc(-c3cnc(OC)c(NS(=O)(=O)c4ccc(F)cc4C)c3)cc2c1=O (single isomer, unassigned) [WX181] | 47.4 nM | 9.04 nM | 7.06 nM | 720 nM | 48.3 nM | 8.34 µM | 882.0 nM · h/mpk | –
Cc1nc(C)c(S(=O)(=O)Nc2cc(-c3ccc4ncn(CCCC(=O)NC(C)C)c(=O)c4c3)cnc2C)s1 [WX006] | 4.53 nM | – | 1 nM | 279 nM | 19.6 nM | – | – | 279 nM
CNC(=O)[C@H]1C[C@H](n2cnc3ccc(-c4cnc(C)c(NS(=O)(=O)c5ccc(F)cc5Cl)c4)cc3c2=O)C1 [WX013] | 5.25 nM | – | 1.22 nM | 95.9 nM | 15.2 nM | – | – | 209 nM
CNC(=O)[C@@H](C)Cn1cnc2ccc(-c3cnc(OC)c(NS(=O)(=O)c4cc(F)cc(F)c4)c3)cc2c1=O [WX192] | 37.5 nM | 53.6 nM | 5.39 nM | 633 nM | 37.8 nM | – | – | –
CNC(=O)[C@@H](C)Cn1cnc2ccc(-c3cnc(OC)c(NS(=O)(=O)c4ccc(F)cc4C(F)(F)F)c3)cc2c1=O [WX194] | 16.4 nM | 84.9 nM | 3.42 nM | 432 nM | 17 nM | – | – | –

Results, then the compound that gave them:

IC50 (PI3Kδ) | IC50 [1] | IC50 (PI3Kα) | IC50 (PI3Kβ) | IC50 (PI3Kγ) | Cmax [2] | Oral DNAUC (area under the dose normalization curve) [2] | IC50 ([1]; Homo sapiens, MCF7, 2 h) | Structure (SMILES)
3.88 nM | – | 1.16 nM | 68.5 nM | 4.57 nM | – | – | 16.8 nM | COc1ncc(-c2ccc3ncn(CCC(N)=O)c(=O)c3c2)cc1NS(=O)(=O)c1ccc(F)cc1Cl [WX001]
2.02 nM | – | 5.71 nM | 82.4 nM | 20.6 nM | – | – | 39.9 nM | COc1ncc(-c2ccc3ncn(CC4(C(N)=O)CC4)c(=O)c3c2)cc1NS(=O)(=O)c1ccc(F)cc1Cl [WX023]
25.6 nM | – | 5.4 nM | 183 nM | 39.9 nM | – | – | 134 nM | COc1ncc(-c2ccc3ncn(CC(N)C(N)=O)c(=O)c3c2)cc1NS(=O)(=O)c1ccc(F)cc1Cl (stereo not drawn) [WX040]
